Entries after “also recorded” stand apart in the source; their conditions may differ. Like-named read-outs stand apart in the source and are kept apart here. Where no end group is shown, it is not given here.
Tests used:
DISC1 = target: T1, DISC1 (Rattus norvegicus, UniProt Q810H6); assay: Affinity purification (pull-down) of DISC1 from solubilized striatal tissue by GST fusion proteins of D2R fragments; format: binding; settings: GST fusion protein
T1 construct: from tissue; host or cells: rat striatum, solubilized
T1 sequence (Q810H6 1-846): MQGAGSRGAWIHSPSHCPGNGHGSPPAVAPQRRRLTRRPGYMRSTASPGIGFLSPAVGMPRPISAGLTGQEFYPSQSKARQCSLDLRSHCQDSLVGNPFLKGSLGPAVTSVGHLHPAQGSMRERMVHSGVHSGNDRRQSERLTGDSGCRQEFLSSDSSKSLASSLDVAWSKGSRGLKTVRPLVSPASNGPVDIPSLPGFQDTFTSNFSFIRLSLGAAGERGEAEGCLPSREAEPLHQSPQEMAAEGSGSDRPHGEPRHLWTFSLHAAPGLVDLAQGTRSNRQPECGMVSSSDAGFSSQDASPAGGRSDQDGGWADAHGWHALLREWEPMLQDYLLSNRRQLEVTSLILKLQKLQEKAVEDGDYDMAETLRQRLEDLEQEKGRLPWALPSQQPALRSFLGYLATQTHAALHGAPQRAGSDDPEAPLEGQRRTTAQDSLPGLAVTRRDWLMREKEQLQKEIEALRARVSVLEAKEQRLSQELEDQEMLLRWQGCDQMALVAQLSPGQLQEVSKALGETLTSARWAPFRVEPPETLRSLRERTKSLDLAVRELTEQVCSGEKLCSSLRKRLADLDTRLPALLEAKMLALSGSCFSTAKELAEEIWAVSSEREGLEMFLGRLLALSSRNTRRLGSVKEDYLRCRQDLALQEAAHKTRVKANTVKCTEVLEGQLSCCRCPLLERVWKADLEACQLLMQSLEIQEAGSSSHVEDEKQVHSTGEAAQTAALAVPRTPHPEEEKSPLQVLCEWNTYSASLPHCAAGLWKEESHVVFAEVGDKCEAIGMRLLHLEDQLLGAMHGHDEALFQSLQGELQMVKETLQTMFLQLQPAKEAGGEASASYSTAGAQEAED
Text: (A) Co-immunoprecipitation of DISC1 by D2 antibody in rat striatal tissue.
This method uses GST fusion proteins encoding the fragments of a test protein to affinity purify other proteins that may form complexes with the test protein in tissue from a specific brain region. Since DISC1 is an intracellular protein, we made GST-fusion proteins encoding two intracellular regions of D2R: the carboxyl tail (CT) of D2R (D2CT: T428-C443) and the third intracellular loop ([…]) of D2R (D2IL3: K211-Q373). Many dopamine receptor interacting proteins have been identified that interact with either the CT or the IL3 region of dopamine receptors (94). […] GST fusion proteins encoding these two fragments were made and used in the affinity purification experiment. […] Thus, we concluded that D2IL3-1-1 (SEQ ID NO:1) comprises the site for D2-DISC1 interaction.

D2R = D2R (Homo sapiens, UniProt P14416); settings: cited from earlier work
Sequence of D2R (P14416 whole entry): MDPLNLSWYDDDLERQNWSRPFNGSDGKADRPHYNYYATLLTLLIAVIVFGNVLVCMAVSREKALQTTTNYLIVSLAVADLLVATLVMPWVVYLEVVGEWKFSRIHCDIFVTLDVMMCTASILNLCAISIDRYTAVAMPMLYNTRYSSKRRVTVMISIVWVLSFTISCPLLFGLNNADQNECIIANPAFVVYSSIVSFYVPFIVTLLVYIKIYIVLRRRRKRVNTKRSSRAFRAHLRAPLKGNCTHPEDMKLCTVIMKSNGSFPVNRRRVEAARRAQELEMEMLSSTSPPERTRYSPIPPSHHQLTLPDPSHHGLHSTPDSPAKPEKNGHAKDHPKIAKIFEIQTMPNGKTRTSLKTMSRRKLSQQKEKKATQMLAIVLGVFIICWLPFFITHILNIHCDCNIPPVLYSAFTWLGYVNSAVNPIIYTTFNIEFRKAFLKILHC

D2-DISC1 interaction [1] = assay: Co-immunoprecipitation of D2-DISC1 after ICV administration of peptide; format: in vivo, rat; settings: administered via ICV; data not shown
Sequence of D2-DISC1 interaction (P61169 whole entry, one chain of several): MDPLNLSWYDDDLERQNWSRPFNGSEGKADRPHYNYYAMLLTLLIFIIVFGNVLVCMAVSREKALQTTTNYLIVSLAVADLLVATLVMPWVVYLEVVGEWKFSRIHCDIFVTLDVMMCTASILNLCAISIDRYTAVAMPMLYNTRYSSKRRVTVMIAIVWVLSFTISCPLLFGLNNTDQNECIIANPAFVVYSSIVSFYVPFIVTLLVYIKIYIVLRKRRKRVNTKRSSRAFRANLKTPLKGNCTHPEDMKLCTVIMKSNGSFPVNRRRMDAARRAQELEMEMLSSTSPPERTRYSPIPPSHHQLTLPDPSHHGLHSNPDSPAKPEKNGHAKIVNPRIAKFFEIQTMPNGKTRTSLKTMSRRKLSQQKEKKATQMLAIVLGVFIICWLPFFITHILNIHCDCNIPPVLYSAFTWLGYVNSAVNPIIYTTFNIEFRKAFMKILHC
Text: PPI of the acoustic startle reflex is a sensorimotor gating process known to be deficient in a number of neurologic and psychiatric conditions including, but not limited to schizophrenia, Huntington's disease, Tourette's syndrome, and obsessive compulsive disorder (OCD). PPI can be disrupted by the dopamine DI/D2R agonist apomorphine in rats (111). […] Accordingly, if D2-DISC1 interaction plays an important role in the D2R-mediated reduction of phosphorylation of GSK-3α/β, disruption of the D2R-DISC1 interaction should reverse D2R-associated behaviours such as PPI deficit. […] These effects could not be explained in terms of altered startle reactivity (data not shown). The ability of the TAT-D2pep (administered via ICV) to disrupt the D2-DISC1 interaction was confirmed in co-immunoprecipitation experiments (data not shown).

D2-DISC1 interaction [2] = assay: Apomorphine-induced disruption of pre-pulse inhibition (PPI) of the acoustic startle reflex in rats; format: in vivo, rat; settings: for Effect on apomorphine-induced disruption of PPI / Effect on basal PPI (degree of PPI without apomorphine): rats; for Effect on apomorphine-induced disruption of PPI: apomorphine 0.3 mg/kg SC, peptide ICV (1 mM, 4 μl; 40 nmol), n=5 per group; for Effect on basal PPI (degree of PPI without apomorphine): peptide ICV
Text: PPI of the acoustic startle reflex is a sensorimotor gating process known to be deficient in a number of neurologic and psychiatric conditions including, but not limited to schizophrenia, Huntington's disease, Tourette's syndrome, and obsessive compulsive disorder (OCD).

DISC1CT = assay: In vitro binding assay with [35S]-DISC1CT probe; settings: glutathione beads with GST-fusion protein, autoradiography
Method: (§1) To construct GST-fusion proteins encoding truncated D2113, cDNA fragments were amplified by PCR with specific primers. All 5′ and 3′ oligonucleotides incorporated BamH1 site (GGATCC) and Xho1 sites (CTCGAG), respectively, to facilitate subcloning into vector pGEX-4T3 (for GST-fusion protein construction). GST-fusion proteins were prepared from bacterial lysates as described by the manufacturer (Amersham). To confirm appropriate splice fusion and the absence of spurious PCR generated nucleotide errors, all constructs were resequenced. For in vitro binding assays, the probes were made with DISC1-NT or DISC1-CT subcloned into mammalian expression vector pCDNA3 using TNT® T7 Quick Coupled Transcription/Translation System (Promega, Madison, Wis.) and [35S] methionine (PerkinElmer, Waltham, Mass.). Glutathione beads carrying 20 μg GST-fusion proteins of D2IL3 or GST alone were incubated at room temperature for 1 hour with [35S] methionine-labeled […] probe, respectively. The beads were then washed six times with PBS containing 0.1-0.5% (V/V) Triton X-100 and eluted with 10 mM glutathione elution buffer. Eluates were separated by SDS-PAGE and visualized by autoradiography using BioMax (Kodak) film.

DISC1NT = assay: In vitro binding assay with [35S]-DISC1NT probe; settings: glutathione beads with GST-fusion protein, autoradiography
Sequence of DISC1NT (Q9NRI5 1-75 limits assumed): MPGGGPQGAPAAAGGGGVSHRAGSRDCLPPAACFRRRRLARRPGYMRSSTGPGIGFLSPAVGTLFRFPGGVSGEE
Method: as §1

[3] = 100 Russian patients with schizophrenia; cited from earlier work
GSK-3α/β phosphorylation = assay: Western blot of phosphorylated GSK-3α/β (Ser-21/9) in transfected HEK-293T cells; format: cell-based
Method: (A) Western blot analysis of phosphorylated GSK-3α/β levels in extract prepared from transfected HEK293T cells in the presence or absence of DA. Alpha-tubulin was used as loading controls. (B) Densitometric analysis. Data are analyzed by t-test. (C) Cyclic AMP analysis in transfected HEK293T cells in the presence or absence of Foskolin and Quinpirole. Data are analyzed by one-way ANOVA. Data are means±SEM. Numbers of samples per group (n) are indicated. CTRL: Control; DA: Dopamine.
Alpha-tubulin was used as loading controls. CTRL: Control; DA: Dopamine.
Currently, all studies related to D2R-mediated Akt/GSK-3 signaling were carried out in brain tissue, where the expression of D2R and DISC1 was confirmed (11,89,99). At least to our knowledge, there are no studies of D2R-mediated Akt/GSK-3 signaling in HEK-293T cells. Furthermore, there is no evidence indicating the existence of endogenous DISC1 in HEK-293T cells. […] The intensity of phosphor-GSK-3α Ser-21 and […] binding was quantified by densitometry (software: AIS Imaging Research Inc) (FIG. 1B). […] acted as a loading control in this experiment. […]

[4] = target: T2, Disrupted-in-schizophrenia-1 (DISC1), endogenous, in solubilized rat striatal tissue (rat, UniProt Q810H6 1-846, limits assumed); assay: co-immunoprecipitation from rat striatal tissue with D1R antibody (data not shown)
T2 construct: Endogenous protein in a tissue extract
T2 sequence (looked up): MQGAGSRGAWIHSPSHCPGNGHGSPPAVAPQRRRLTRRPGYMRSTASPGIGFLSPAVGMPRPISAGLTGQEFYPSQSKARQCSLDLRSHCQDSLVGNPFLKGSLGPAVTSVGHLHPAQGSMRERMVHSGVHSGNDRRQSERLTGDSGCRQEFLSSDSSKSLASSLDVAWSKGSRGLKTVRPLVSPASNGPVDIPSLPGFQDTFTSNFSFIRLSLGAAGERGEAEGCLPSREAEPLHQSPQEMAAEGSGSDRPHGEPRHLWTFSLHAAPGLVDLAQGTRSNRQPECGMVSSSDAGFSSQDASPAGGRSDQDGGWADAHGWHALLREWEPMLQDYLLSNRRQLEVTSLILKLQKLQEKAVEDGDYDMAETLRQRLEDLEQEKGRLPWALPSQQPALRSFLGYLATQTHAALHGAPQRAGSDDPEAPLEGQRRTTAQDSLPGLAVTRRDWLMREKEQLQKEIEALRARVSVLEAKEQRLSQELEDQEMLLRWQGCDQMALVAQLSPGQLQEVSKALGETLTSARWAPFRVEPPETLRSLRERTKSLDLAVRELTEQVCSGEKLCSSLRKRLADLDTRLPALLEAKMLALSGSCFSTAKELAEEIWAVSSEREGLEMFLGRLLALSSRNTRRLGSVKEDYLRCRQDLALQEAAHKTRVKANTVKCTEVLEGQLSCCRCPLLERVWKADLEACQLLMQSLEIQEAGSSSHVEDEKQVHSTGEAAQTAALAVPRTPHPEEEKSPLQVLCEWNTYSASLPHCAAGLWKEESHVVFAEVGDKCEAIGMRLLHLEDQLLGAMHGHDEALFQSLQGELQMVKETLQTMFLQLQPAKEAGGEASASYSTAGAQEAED

GST-D2IL3-1-2: GST fusion of D2IL3-1-2: K226-L240 (KRSSRAFRAHLRAPL; also: GST fusion; UniProt P14416 226-240, looked up, fragment)
Pull-down (precipitation) of DISC1 (DISC1): failed to

O=C1Cc2cc(CCN3CCN(c4nsc5ccccc45)CC3)c(Cl)cc2N1 [ziprasidone]
Antagonism of β-arrestin 2 recruitment to D2R (D2R; induced by activation of D2R): potently antagonize

GST-D2CT: GST-fusion protein of the carboxyl tail of D2R (D2CT: T428-C443) (TFNIEFRKAFLKILHC; also: GST fusion; UniProt P14416 428-443, looked up, fragment)
Pull-down (precipitation) of DISC1 (DISC1): not

TAT-D2pep: TAT-D2 pep [K211-T225]: YGRKKRRQRRRKIYIVLRRRRKRVNT (SEQ ID NO:2) (TAT-[K211-T225]D2R fusion protein)
Ability to disrupt the D2-DISC1 interaction (co-immunoprecipitation) (D2-DISC1 interaction [1]): confirmed | Effect on apomorphine-induced disruption of PPI (D2-DISC1 interaction [2]): completely reversed the effects of apomorphine; also recorded: significantly reversed the disruption of PPI | Effect on basal PPI (degree of PPI without apomorphine) (D2-DISC1 interaction [2]): without altering the degree of PPI

Cc1nc2n(c(=O)c1CCN1CCC(c3noc4cc(F)ccc34)CC1)CCCC2 [risperidone]
Antagonism of β-arrestin 2 recruitment to D2R (D2R): potently antagonize

CN1CCc2cccc3c2[C@H]1Cc1ccc(O)c(O)c1-3 [apomorphine]
Effect on PPI in comparison with saline/vehicle (D2-DISC1 interaction [2]; rat, in vivo): reduced levels of PPI at all 3 prepulse intensities; also recorded: significantly disrupted PPI

TAT-D2pep-sc: scrambled peptide YGRKKRRQRRRVLRKTRIRRYKIRNV (SEQ ID NO:3) (TAT-D2 scrambled fusion protein)
Effect on apomorphine-induced disruption of PPI (D2-DISC1 interaction [2]): did not affect the response to apomorphine | Effect on apomorphine-induced disruption of PPI (D2-DISC1 interaction [2]; listed as TAT-D2pep-scramb): no effect | Effect on basal PPI (degree of PPI without apomorphine) (D2-DISC1 interaction [2]): did not affect

GST-D2IL3-1-1: GST fusion of D2IL3-1-1: K211-T225, KIYIVLRRRRKRVNT (SEQ ID NO:1) (also: GST fusion; UniProt P14416 211-225, looked up, fragment)
Binding of [35S]-DISC1CT probe (DISC1CT): not | Pull-down (precipitation) of DISC1 (DISC1): Affinity pull-down of the DISC1; also recorded: recognizes and precipitates DISC1 | Binding of [35S]-DISC1NT probe (DISC1NT): bound

N[C@@]1(C(=O)O)CS(=O)(=O)[C@H]2[C@H](C(=O)O)[C@H]21 [LY404,039]
Clinical effectiveness in schizophrenia [3]: significantly effective

OCCOCCN1CCN(C2=Nc3ccccc3Sc3ccccc32)CC1 [quetiapine]
Antagonism of β-arrestin 2 recruitment to D2R (D2R; induced by activation of D2R): potently antagonize

NCCc1ccc(O)c(O)c1 [dopamine]
Phosphorylation of GSK3α/β (GSK-3α/β phosphorylation; HEK-293T cells co-expressing D2R and DISC1, 10 μM dopamine, 30 min): significantly decreased | Phosphorylation of GSK3α/β (GSK-3α/β phosphorylation; HEK-293T cells expressing D2R with pcDNA3, dopamine): failed to alter

GST-D2IL3-1: GST fusion protein of D2IL3-1: K211-V270 (KIYIVLRRRRKRVNTKRSSRAFRAHLRAPLKGNCTHPEDMKLCTVIMKSNGSFPVNRRRV; cysteine pairing not given here; also: GST fusion; UniProt P14416 211-270, looked up, fragment)
Pull-down (precipitation) of DISC1 (DISC1): Affinity pull-down of the DISC1; also recorded: recognizes and precipitates DISC1

B1: Dopamine D1 receptor (D1R), endogenous, in rat striatal tissue (receptor, UniProt P18901 1-446, looked up)
chain: MAPNTSTMDEAGLPAERDFSFRILTACFLSLLILSTLLGNTLVCAAVIRFRHLRSKVTNFFVISLAVSDLLVAVLVMPWKAVAEIAGFWPLGPFCNIWVAFDIMCSTASILNLCVISVDRYWAISSPFQYERKMTPKAAFILISVAWTLSVLISFIPVQLSWHKAKPTWPLDGNFTSLEDTEDDNCDTRLSRTYAISSSLISFYIPVAIMIVTYTSIYRIAQKQIRRISALERAAVHAKNCQTTAGNGNPVECAQSESSFKMSFKRETKVLKTLSVIMGVFVCCWLPFFISNCMVPFCGSEETQPFCIDSITFDVFVWFGWANSSLNPIIYAFNADFQKAFSTLLGCYRLCPTTNNAIETVSINNNGAVVFSSHHEPRGSISKDCNLVYLIPHAVGSSEDLKKEEAGGIAKPLEKLSPALSVILDYDTDVSLEKIQPVTHSGQHST
binding result [4]: no binding

Source: patent US20120093822A1, “DOPAMINE D2 RECEPTOR-DISC1 INTERACTION, COMPOSITIONS AND METHODS FOR MODULATING SAME” (Centre Forr Addiction And Mental Health, priority 2009, published 2012)
